Measurements published in ChEMBL document CHEMBL3046744, “Comparison of the declining triazole sensitivity of Gibberella zeae and increased sensitivity achieved by advances in triazole fungicide development” (Crop Prot, 2007).
Activity calls are given as the source filed them. The rule behind the calls is not given here.

Experiments:
Fusarium culmorum = experiment: Antifungal activity against Fusarium culmorum infected durum wheat assessed as reduction in deoxynivalenol content in crop; format: functional; design: scale not given: the % may be the effect or the level left
Fusarium graminearum [1] = experiment: Growth inhibition of Fusarium graminearum isolate 37 at 10^-4 M after 14 days; format: functional; settings: isolate 37, 336 h, read-out: GI
Rattus norvegicus = experiment: Toxicity in po dosed Rattus norvegicus (rat) relative to metconazole; format: organism-based; settings: in vivo
[2] = Toxicity in po dosed Rattus norvegicus (rat); format: organism-based; settings: in vivo
Fusarium graminearum [3] = experiment: Growth inhibition of Fusarium graminearum isolate 123 at 10^-4 M after 14 days; format: functional; settings: isolate 123, 336 h, read-out: GI
Fusarium graminearum [4] = experiment: Growth inhibition of Fusarium graminearum isolate 137 at 10^-4 M after 14 days; format: functional; settings: isolate 137, 336 h, read-out: GI
Fusarium graminearum [5] = experiment: Growth inhibition of Fusarium graminearum isolate 4527b at 10^-4 M after 14 days; format: functional; settings: 336 h, read-out: GI
Fusarium graminearum [6] = experiment: Growth inhibition of Fusarium graminearum isolate 74B at 10^-4 M after 14 days; format: functional; settings: 336 h, read-out: GI
Fusarium graminearum [7] = experiment: Growth inhibition of Fusarium graminearum isolate 102 at 10^-4 M after 14 days; format: functional; settings: isolate 102, 336 h, read-out: GI
Fusarium graminearum [8] = experiment: Antifungal activity against Fusarium graminearum isolate 137 after 8 hr by microscopic analysis; format: functional, organism-based; settings: isolate 137, 8 h, pooled result: one value given for 5 cell lines, strains, targets or settings
Fusarium graminearum [9] = experiment: Growth inhibition of Fusarium graminearum isolate 106 at 10^-4 M after 14 days; format: functional; settings: isolate 106, 336 h, read-out: GI
[10] = Aqueous solubility of the compound assessed per 100 g; format: physicochemical; settings: buffer
Fusarium graminearum [11] = experiment: Antifungal activity against Fusarium graminearum after 8 hr by microscopic analysis relative to prothioconazole; format: functional
[12] = Aqueous solubility of the compound assessed per 100 g at pH 7; format: physicochemical; settings: buffer
[13] = Selectivity ratio of relative toxicity against po dosed rat to relative efficacy against Gibberella zeae; format: organism-based; settings: in vivo
Fusarium graminearum [14] = experiment: Growth inhibition of Fusarium graminearum at >/= 0.001 M after 14 days; format: functional, organism-based

Clc1ccc(C2(Cn3cncn3)CC(Br)CO2)c(Cl)c1 (stereo unspecified) [BROMUCONAZOLE]
Activity (Fusarium culmorum): 43%

Fc1ccc([C@]2(Cn3cncn3)O[C@H]2c2ccccc2Cl)cc1 [EPOXICONAZOLE]
inhibition of growth at 100 µM (Fusarium graminearum [1]): 98.7%
fold change (FC) (Rattus norvegicus): 0.19
LD50 [2]: 3160 mg/kg
inhibition of growth at 100 µM (Fusarium graminearum [3]): 95.9%
inhibition of growth at 100 µM (Fusarium graminearum [4]): 99.6%
inhibition of growth at 100 µM (Fusarium graminearum [5]): 98%
inhibition of growth at 100 µM (Fusarium graminearum [6]): 95.7%
inhibition of growth at 100 µM (Fusarium graminearum [7]): 97.1%
EC50 (Fusarium graminearum [8]): 10800 µM
inhibition of growth at 100 µM (Fusarium graminearum [9]): 95.4%
solubility [10]: 0.7 mg
fold change (FC) (Fusarium graminearum [11]): 0

CC1(C)CCC(Cc2ccc(Cl)cc2)C1(O)Cn1cncn1 (stereo unspecified) [METCONAZOLE]
LD50 [2]: 660 mg/kg
solubility [12]: 3 mg
EC50 (Fusarium graminearum [8]): 177 µM
selectivity ratio [13]: 0.27
fold change (FC) (Fusarium graminearum [11]): 0.27

CCCN(CCOc1c(Cl)cc(Cl)cc1Cl)C(=O)n1ccnc1 [PROCHLORAZ]
Activity (Fusarium culmorum): 43%

OC(Cc1ccccc1Cl)(Cn1nc[nH]c1=S)C1(Cl)CC1 (stereo unspecified) [PROTHIOCONAZOLE]
fold change (FC) (Rattus norvegicus): 0.1
LD50 [2]: 6200 mg/kg
EC50 (Fusarium graminearum [8]): 32 µM
selectivity ratio [13]: 10.3

CC(C)(C)C(O)(CCc1ccc(Cl)cc1)Cn1cncn1 (stereo unspecified) [TEBUCONAZOLE]
fold change (FC) (Rattus norvegicus): 0.35
LD50 [2]: 1700 mg/kg
growth inhibition (GI) (Fusarium graminearum [14]): Active
Activity (Fusarium culmorum): 43%
EC50 (Fusarium graminearum [8]): 327 µM
selectivity ratio [13]: 0.44
solubility [10]: 3.6 mg
fold change (FC) (Fusarium graminearum [11]): 0.15
